From PubChem BioAssay AID434987 (Southern Research Specialized Biocontainment Screening …, 2010)
The source made the active and inactive calls. How the calls were made is not given here.

Tested on: M. tuberculosis H37Rv growth inhibition with meropenem
Assay: dose response, H37Rv, with and without meropenem (AID 434987);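 further: growth over 7 days at 37 °C before Alamar Blue read on day 9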
[1] = M. tuberculosis H37Rv growth inhibition, measured here: IC50 without meropenem
[2] = M. tuberculosis H37Rv growth inhibition, measured here: IC90 without meropenem
[3] = measured here: IC90 with meropenem

| SMILES | IC50 | IC50 [1] [µM] | IC90 [2] [µM] | IC90 [3] [µM] |
| --- | --- | --- | --- | --- |
| COc1cccc(NC(=O)C(=O)c2cn(CC(=O)N3CCOCC3)c3ccccc23)c1 | > 100 µM (inactive) | > 100 | > 100 | > 100 |
| CCOC(=O)Cc1nc2ccccc2[nH]1 | 15.3 µM | 49.6 | > 100 | > 100 |
| CCOC(=O)CSc1nnc(CNC(=O)c2cccs2)n1CCc1ccccc1 | 20.1 µM (inactive) | 35.2 | 55.8 | 49.5 |
| CN(NC(=O)c1c(Cl)cccc1Cl)c1cccc(Cl)n1 | 7.34 µM | 62.3 | > 100 | > 100 |
| N#Cc1c(NC(=O)CSc2nc(-c3ccco3)cc(C(F)(F)F)n2)sc2c1CCCC2 | > 100 µM (inactive) | > 100 | > 100 | > 100 |
| COc1ccc(-n2cc(-c3ccccc3)c3c(NN4CCOCC4)ncnc32)cc1 | 22.4 µM (inactive) | 32.8 | 60.3 | 36.1 |
| CCCn1nc2cc(C(=O)NCCCCc3ccccc3)ccc2c1OCC | 90.1 µM (inactive) | 92.3 | > 100 | > 100 |
| COc1ccc(Nc2cc(C(=O)NCc3ccco3)c3ccccc3n2)c(OC)c1 | > 100 µM (inactive) | > 100 | > 100 | > 100 |
| COC(=O)c1c(-c2ccc(OC)cc2)oc2ccc(-c3cc(OC)c(OC)c(OC)c3)cc12 | 7.72 µM | > 100 | > 100 | > 100 |
| CCc1ccc2c(c1)C(c1ccc([N+](=O)[O-])cc1)=NNC(c1ccc(C)cc1)=N2 | > 100 µM (inactive) | > 100 | > 100 | > 100 |
| NCCS | > 100 µM (inactive) | > 100 | > 100 | > 100 |
| O=C(/C=C/c1ccccc1)NC1CC2CCC1C2 (configuration not stated) | > 100 µM (inactive) | > 100 | > 100 | > 100 |
| COc1cc(NC(=O)c2cc(-c3cccnc3)nc3ccc(Br)cc23)cc(OC)c1 | > 100 µM (inactive) | > 100 | > 100 | > 100 |
| O=C1COc2ccc(C(=O)/C=C/c3ccccc3)cc2N1 | 9.75 µM | 25.6 | > 50 | 12.2 |
| c1ccc(-c2cc3ccccc3[nH]2)cc1 | > 100 µM (inactive) | > 100 | > 100 | > 100 |
| CCn1c2ccccc2c2cc(NC(=O)c3cccc(OC)c3OC)ccc21 | > 100 µM (inactive) | > 100 | > 100 | > 100 |
| O=C(CSc1ncn[nH]1)Nc1cccc2ccccc12 | 29.6 µM (inactive) | 50.7 | > 100 | 65 |
| Cc1nn(CCc2nn[nH]n2)c2nc(-c3ccc(C4CCCCC4)cc3)cc(C(F)(F)F)c12 | 8.62 µM | 24.9 | 50 | > 100 |
| COc1ccc2oc(=N)c(C(=O)Nc3ccccc3)cc2c1 | > 100 µM (inactive) | > 100 | > 100 | > 100 |
| O=C(COc1ccc(Cl)cc1)OCC(=O)N1CCCCCC1 | 45.5 µM (inactive) | > 100 | > 100 | > 100 |
| COc1cc(/C(C)=N\NC(N)=S)cc(OC)c1OC | 10.2 µM | > 100 | > 100 | 19.6 |
| CCCC(=O)Nc1nc(-c2ccccc2)ns1 | > 100 µM (inactive) | > 100 | > 100 | > 100 |

| SMILES | IC50 | IC50 [1] [µM] | IC90 [2] [µM] | IC90 [3] [µM] |
| --- | --- | --- | --- | --- |
| Cc1ccc(C(=O)NN2C(=O)/C(=C/c3cccn3C)SC2=S)cc1 | > 100 µM (inactive) | > 100 | > 100 | > 100 |
| CCOC(=O)Cn1nc(-c2ccc(C)cc2)c2ccccc2c1=O | 17.5 µM | > 100 | > 100 | > 50 |
| COC(=O)Cn1nc(-c2ccccc2)c2ccccc21 | > 100 µM (inactive) | > 100 | > 100 | > 100 |
| O=C(Nc1ccc(F)cc1)c1sc2cc(C(F)(F)F)cnc2c1-c1cccs1 | > 100 µM (inactive) | > 100 | > 100 | > 100 |
| Cc1cc(C)cc(NC(=O)c2cc(Cl)sc2Cl)c1 | 4.84 µM | > 100 | > 100 | 7.73 |
| CCOC(=O)C1CCN(C(=O)CCCCn2c(=O)[nH]c3ccccc3c2=O)CC1 | > 100 µM (inactive) | > 100 | > 100 | > 100 |
| CCOc1cc(N2CCOCC2)c(OCC)cc1NC(=O)c1cc(C)cc(C)c1 | 23.7 µM | > 100 | > 100 | > 100 |
| COc1ccccc1/C=N/NC(=S)Nc1cccnc1 | 31.1 µM | > 100 | > 100 | > 50 |
| CC(C)CCSc1nc(N2CCOCC2)c2c(c1C#N)CC(C)(C)OC2 | 78.2 µM (inactive) | > 100 | > 100 | > 100 |
| COc1ccc(-c2cc(C(F)(F)F)nc(SCC(=O)Nc3sc4c(c3C#N)CCC4)n2)cc1 | 94 µM (inactive) | > 100 | > 100 | > 100 |
| COc1ccc2sc(-c3ccc(N(C)C)cc3)c(C#CC(C)(C)O)c2c1 | 19.8 µM | > 100 | > 100 | > 100 |
| C=C(C)C1Cc2c(C)nn(-c3cccc4ccccc34)c2C1 (configuration not stated) | 15.4 µM | 39.2 | 58.5 | 47.4 |
| O=C(/C=C/c1ccc([N+](=O)[O-])cc1)c1cccs1 | 5.35 µM | 22.2 | 95.1 | 12.2 |
| OCCOCCn1c(C2CCCN2c2nc(-c3ccc(F)cc3)cs2)nc2cc(Cl)c(Cl)cc21 (configuration not stated) | > 100 µM (inactive) | > 100 | > 100 | > 100 |
| CCOC(=O)c1c(NC(=S)NC(=O)c2ccc(Cn3cc(Cl)cn3)o2)sc2c1CCC(C)C2 (configuration not stated) | > 100 µM (inactive) | > 100 | > 100 | > 100 |
| COc1ccc(C(=O)NC(=S)Nc2ccc(S(=O)(=O)Nc3cc(C)on3)cc2)cc1OC | 13.8 µM | 36.5 | > 100 | 29 |
| Cc1cc(NC(=O)c2ccc3c(c2)OCCO3)ccc1NC(=O)c1cc2ccccc2o1 | 76.3 µM (inactive) | > 100 | > 100 | > 100 |
| Cc1cc2c(=O)oc(-c3ccc(Br)cc3)nc2s1 | > 100 µM (inactive) | > 100 | > 100 | > 100 |
| Cc1cc(C(=O)CSc2nnnn2-c2ccccc2)c(C)n1-c1ccc2c(c1)OCO2 | 44.9 µM (inactive) | 49.7 | > 100 | 60.9 |
| Cc1ccc(-n2nnnc2Sc2nc([N+](=O)[O-])nn2C)cc1 | 10.2 µM | 51.4 | 93.5 | > 100 |
| O=C(N/N=C/c1ccc([N+](=O)[O-])o1)c1ccccc1-n1cccc1 | 4.74 µM | 13.9 | 35 | 29.4 |
